≈ marks a conversion by molar mass, not a printed value. Calls of active or inactive are those of the source. No cut-off for these calls is given here.
Assays:
Aspergillus fumigatus = assay: Antifungal activity against Aspergillus fumigatus; type: functional
Staphylococcus aureus [1] = assay: Potency index, ratio of norfloxacin MIC to test compound MIC for drug-resistant Staphylococcus aureus by microbroth dilution method; type: functional
Staphylococcus aureus [2] = assay: Antibacterial activity against drug-resistant Staphylococcus aureus by microbroth dilution method; type: functional
[3] = Toxicity in mouse assessed as change in liver morphology at 5 to 10 mg/kg administered for 10 days by hematoxylin and eosin staining based assay; type: organism-based; conditions: in vivo, 240 h, dose 5-10 mg/kg, time 10 day
[4] = Hemolytic activity in human RBC assessed as hemolysis ratio at 0.0189 mM measured after 1 hr relative to control; type: toxicity, cell-based, Erythrocyte; conditions: red blood cells (erythrocytes)
Pseudomonas aeruginosa [5] = assay: Antibacterial activity against Pseudomonas aeruginosa by microbroth dilution method; type: functional
Staphylococcus aureus [6] = assay: Antibacterial activity against methicillin-resistant Staphylococcus aureus N315 by microbroth dilution method; type: functional
[7] = Cytotoxicity against human A549 cells assessed as cell viability up to 0.3019 mM measured after 72 hrs by MTT assay relative to control; type: toxicity, cell-based; conditions: read-out: Activity
DNA [8] = assay: Displacement of neutral red from drug-resistant Staphylococcus aureus DNA assessed as DNA intercalation by UV-visible absorption spectra analysis; type: nucleic-acid assay; conditions: dose <= 1.5 10^-5mol/L
DNA [9] = assay: Binding affinity to drug-resistant Staphylococcus aureus DNA assessed as hypochromic effect at 7.86 x 10^-5 mol/L by UV-visible absorption spectra analysis; type: nucleic-acid assay; conditions: dose 7.86 10^-5mol/L
Staphylococcus aureus [10] = assay: Antibacterial activity against Staphylococcus aureus ATCC 25923 by microbroth dilution method; type: functional
Pseudomonas aeruginosa [11] = assay: Antibacterial activity against Pseudomonas aeruginosa ATCC 27853 by microbroth dilution method; type: functional
Enterococcus faecalis = assay: Antibacterial activity against drug-resistant Enterococcus faecalis by microbroth dilution method; type: functional
[12] = Hemolytic activity in human RBC assessed as hemolysis ratio at 0.0024 mM measured after 1 hr relative to control; type: toxicity, cell-based, Erythrocyte; conditions: red blood cells (erythrocytes)
[13] = Toxicity in mouse assessed as change in spleen morphology at 5 to 10 mg/kg administered for 10 days by hematoxylin and eosin staining based assay; type: organism-based; conditions: in vivo, 240 h, dose 5-10 mg/kg, time 10 day
[14] = Toxicity in mouse assessed as change in kidney morphology at 5 to 10 mg/kg administered for 10 days by hematoxylin and eosin staining based assay; type: organism-based; conditions: in vivo, 240 h, dose 5-10 mg/kg, time 10 day
DNA [15] = assay: Displacement of neutral red from drug-resistant Staphylococcus aureus DNA assessed as DNA intercalation by measuring blue shift up to 1.5 x 10^-5 mol/L by UV-visible absorption spectra analysis (reference value: 460 nm); type: nucleic-acid assay; conditions: dose <= 1.5 10^-5mol/L
Klebsiella pneumoniae = assay: Antibacterial activity against Klebsiella pneumoniae by microbroth dilution method; type: functional
[16] = Hemolytic activity in human RBC assessed as hemolysis ratio at 0.0094 mM measured after 1 hr relative to control; type: toxicity, cell-based, Erythrocyte; conditions: red blood cells (erythrocytes)
Candida albicans [17] = assay: Antifungal activity against drug-resistant Candida albicans; type: functional
Staphylococcus aureus [18] = assay: Antibacterial activity against Staphylococcus aureus ATCC 29213 by microbroth dilution method; type: functional
[19] = Cytotoxicity against mouse L929 cells assessed as cell viability up to 0.3019 mM measured after 72 hrs by MTT assay relative to control; type: toxicity, cell-based; conditions: read-out: Activity
Acinetobacter baumannii = assay: Antibacterial activity against Acinetobacter baumannii by microbroth dilution method; type: functional
Escherichia coli [20] = assay: Antibacterial activity against drug-resistant Escherichia coli by microbroth dilution method; type: functional
Topoisomerase IV = Topoisomerase IV (Staphylococcus aureus, UniProt P0C1S7+P0C1U9); assay: Inhibition of drug-resistant Staphylococcus aureus topoisomerase 4; type: protein-complex assay
Topoisomerase IV, sequence (P0C1U9 whole entry): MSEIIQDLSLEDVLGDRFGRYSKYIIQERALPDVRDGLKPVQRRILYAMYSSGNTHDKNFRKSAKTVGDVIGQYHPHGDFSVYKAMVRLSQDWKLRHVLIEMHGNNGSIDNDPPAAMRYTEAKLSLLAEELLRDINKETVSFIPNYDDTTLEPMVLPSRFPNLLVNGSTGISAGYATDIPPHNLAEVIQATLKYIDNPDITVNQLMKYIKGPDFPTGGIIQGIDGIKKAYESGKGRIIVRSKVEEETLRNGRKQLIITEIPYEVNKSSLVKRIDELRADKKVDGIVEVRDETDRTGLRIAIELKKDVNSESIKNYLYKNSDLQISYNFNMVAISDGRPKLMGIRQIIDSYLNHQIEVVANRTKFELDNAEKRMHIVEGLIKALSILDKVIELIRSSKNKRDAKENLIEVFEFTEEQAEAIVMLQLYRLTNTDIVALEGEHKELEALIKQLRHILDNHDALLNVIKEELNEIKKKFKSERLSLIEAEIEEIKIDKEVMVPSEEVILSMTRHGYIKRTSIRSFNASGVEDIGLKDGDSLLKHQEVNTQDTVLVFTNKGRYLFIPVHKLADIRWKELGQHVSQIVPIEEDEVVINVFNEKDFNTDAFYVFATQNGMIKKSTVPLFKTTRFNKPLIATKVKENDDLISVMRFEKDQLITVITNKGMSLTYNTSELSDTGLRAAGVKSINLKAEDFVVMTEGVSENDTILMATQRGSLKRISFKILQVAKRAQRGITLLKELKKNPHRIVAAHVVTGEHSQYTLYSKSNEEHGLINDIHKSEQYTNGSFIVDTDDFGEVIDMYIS
Topoisomerase IV, sequence (P0C1S7 whole entry): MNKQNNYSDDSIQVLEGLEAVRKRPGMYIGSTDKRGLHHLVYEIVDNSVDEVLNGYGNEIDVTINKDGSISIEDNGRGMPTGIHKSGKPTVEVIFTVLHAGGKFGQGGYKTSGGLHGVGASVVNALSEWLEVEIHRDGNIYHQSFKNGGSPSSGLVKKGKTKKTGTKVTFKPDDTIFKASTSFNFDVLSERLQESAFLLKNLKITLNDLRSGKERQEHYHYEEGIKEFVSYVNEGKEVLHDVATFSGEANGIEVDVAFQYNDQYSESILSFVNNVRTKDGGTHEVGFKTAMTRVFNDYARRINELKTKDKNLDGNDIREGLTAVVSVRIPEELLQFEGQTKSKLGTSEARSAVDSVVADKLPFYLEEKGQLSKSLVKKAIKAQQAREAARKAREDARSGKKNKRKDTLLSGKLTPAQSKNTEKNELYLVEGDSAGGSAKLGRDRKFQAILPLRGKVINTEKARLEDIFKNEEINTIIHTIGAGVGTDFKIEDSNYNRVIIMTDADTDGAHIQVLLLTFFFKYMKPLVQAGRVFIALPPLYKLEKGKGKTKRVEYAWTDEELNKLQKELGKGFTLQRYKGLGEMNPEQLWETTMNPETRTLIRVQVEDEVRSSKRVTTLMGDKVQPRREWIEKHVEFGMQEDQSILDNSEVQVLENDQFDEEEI

Candida parapsilosis = assay: Antifungal activity against Candida parapsilosis ATCC 22019; type: functional; conditions: Lodderomyces parapsilosis
[21] = Toxicity in mouse assessed as change in body weight at 5 to 10 mg/kg administered for 10 days; type: organism-based; conditions: in vivo, 240 h, dose 5-10 mg/kg, time 10 day
Candida albicans [22] = assay: Antifungal activity against Candida albicans ATCC 90023; type: functional
[23] = Hemolytic activity in human RBC assessed as hemolysis ratio at 0.0047 mM measured after 1 hr relative to control; type: toxicity, cell-based, Erythrocyte; conditions: red blood cells (erythrocytes)
Staphylococcus aureus [24] = assay: Induction of resistance development in Staphylococcus aureus measured after 16 passages; type: functional
Candida tropicalis = assay: Antifungal activity against drug-resistant Candida tropicalis; type: functional
Cell membrane = assay: Induction of membrane permeabilization in drug-resistant Staphylococcus aureus at 0.0283 mM measured within 60 mins by propidium iodide staining based fluorescence assay
DNA [25] = assay: Binding affinity to drug-resistant Staphylococcus aureus DNA by UV-visible absorption spectra analysis; type: nucleic-acid assay
Escherichia coli [26] = assay: Antibacterial activity against Escherichia coli ATCC 25922 by microbroth dilution method; type: functional

**Q.** With C/C(Cn1cc(-c2csc(N)n2)c(=O)c2cc(F)c(Cl)cc21)=N\NC(N)=S as the molecule, how does the MIC (Aspergillus fumigatus) read?
**A.** 151 µM (≈ 64.2 µg/mL)

**Q.** What about the Ratio (Staphylococcus aureus [1]) of the same molecule?
**A.** 5

**Q.** And the MIC (Staphylococcus aureus [2])?
**A.** 5 µM (≈ 2.12 µg/mL)

**Q.** And the Activity [3]?
**A.** Non-Toxic

**Q.** What about the hemolysis at 1 h, 18.9 µM [4] of the same molecule?
**A.** 2.21%

**Q.** And the MIC (Pseudomonas aeruginosa [5])?
**A.** 76 µM (≈ 32.3 µg/mL)

**Q.** And the MIC (Staphylococcus aureus [6])?
**A.** 38 µM (≈ 16.1 µg/mL)

**Q.** What about the viability at 72 h, up to 301.9 µM [7] of the same molecule?
**A.** > 75%

**Q.** What about the Activity (DNA [8]) of the same molecule?
**A.** Dose-Dependent Effect

**Q.** And the Activity (DNA [9])?
**A.** Active

**Q.** And the MIC (Staphylococcus aureus [10])?
**A.** 38 µM (≈ 16.1 µg/mL)

**Q.** What about the MIC (Pseudomonas aeruginosa [11]) of the same molecule?
**A.** 19 µM (≈ 8.07 µg/mL)

**Q.** What about the MIC (Enterococcus faecalis) of the same molecule?
**A.** 302 µM (≈ 128 µg/mL)

**Q.** What about the hemolysis at 1 h, 2.4 µM [12] of the same molecule?
**A.** 0.472%

**Q.** What about the Activity [13] of the same molecule?
**A.** Non-Toxic

**Q.** What about the Activity [14] of the same molecule?
**A.** Non-Toxic

**Q.** And the Activity (DNA [15])?
**A.** 420 nm

**Q.** And the MIC (Klebsiella pneumoniae)?
**A.** 302 µM (≈ 128 µg/mL)

**Q.** And the hemolysis at 1 h, 9.4 µM [16]?
**A.** 1.25%

**Q.** What about the MIC (Candida albicans [17]) of the same molecule?
**A.** 19 µM (≈ 8.07 µg/mL)

**Q.** And the MIC (Staphylococcus aureus [18])?
**A.** 5 µM (≈ 2.12 µg/mL)

**Q.** And the viability at 72 h, up to 301.9 µM [19]?
**A.** > 75%

**Q.** And the MIC (Acinetobacter baumannii)?
**A.** 151 µM (≈ 64.2 µg/mL)

**Q.** And the MIC (Escherichia coli [20])?
**A.** 151 µM (≈ 64.2 µg/mL)

**Q.** What about the IC50 (Topoisomerase IV) of the same molecule?
**A.** 10.9 µM

**Q.** And the MIC (Candida parapsilosis)?
**A.** 5 µM (≈ 2.12 µg/mL)

**Q.** And the Activity [21]?
**A.** Toxic

**Q.** And the MIC (Candida albicans [22])?
**A.** 19 µM (≈ 8.07 µg/mL)

**Q.** What about the hemolysis at 1 h, 4.7 µM [23] of the same molecule?
**A.** 1.07%

**Q.** And the Activity (Staphylococcus aureus [24])?
**A.** Active

**Q.** What about the MIC (Candida tropicalis) of the same molecule?
**A.** 151 µM (≈ 64.2 µg/mL)

**Q.** And the Activity (Cell membrane)?
**A.** Active

**Q.** What about the K (DNA [25]) of the same molecule?
**A.** 6.32 10^4L/mol

**Q.** What about the MIC (Escherichia coli [26]) of the same molecule?
**A.** 19 µM (≈ 8.07 µg/mL)

From ChEMBL document CHEMBL5584255, “Synthesis and antibacterial medicinal evaluation of carbothioamido hydrazonyl thiazolylquinolone with multitargeting antimicrobial potential to combat increasingly global resistance” (Eur J Med Chem, 2024)
